The test addresses T1, tankyrase 1 (Homo sapiens, UniProt O95271).
T1 construct: purchased Trevigen 4700-096-K
T1 sequence (O95271 1-1327): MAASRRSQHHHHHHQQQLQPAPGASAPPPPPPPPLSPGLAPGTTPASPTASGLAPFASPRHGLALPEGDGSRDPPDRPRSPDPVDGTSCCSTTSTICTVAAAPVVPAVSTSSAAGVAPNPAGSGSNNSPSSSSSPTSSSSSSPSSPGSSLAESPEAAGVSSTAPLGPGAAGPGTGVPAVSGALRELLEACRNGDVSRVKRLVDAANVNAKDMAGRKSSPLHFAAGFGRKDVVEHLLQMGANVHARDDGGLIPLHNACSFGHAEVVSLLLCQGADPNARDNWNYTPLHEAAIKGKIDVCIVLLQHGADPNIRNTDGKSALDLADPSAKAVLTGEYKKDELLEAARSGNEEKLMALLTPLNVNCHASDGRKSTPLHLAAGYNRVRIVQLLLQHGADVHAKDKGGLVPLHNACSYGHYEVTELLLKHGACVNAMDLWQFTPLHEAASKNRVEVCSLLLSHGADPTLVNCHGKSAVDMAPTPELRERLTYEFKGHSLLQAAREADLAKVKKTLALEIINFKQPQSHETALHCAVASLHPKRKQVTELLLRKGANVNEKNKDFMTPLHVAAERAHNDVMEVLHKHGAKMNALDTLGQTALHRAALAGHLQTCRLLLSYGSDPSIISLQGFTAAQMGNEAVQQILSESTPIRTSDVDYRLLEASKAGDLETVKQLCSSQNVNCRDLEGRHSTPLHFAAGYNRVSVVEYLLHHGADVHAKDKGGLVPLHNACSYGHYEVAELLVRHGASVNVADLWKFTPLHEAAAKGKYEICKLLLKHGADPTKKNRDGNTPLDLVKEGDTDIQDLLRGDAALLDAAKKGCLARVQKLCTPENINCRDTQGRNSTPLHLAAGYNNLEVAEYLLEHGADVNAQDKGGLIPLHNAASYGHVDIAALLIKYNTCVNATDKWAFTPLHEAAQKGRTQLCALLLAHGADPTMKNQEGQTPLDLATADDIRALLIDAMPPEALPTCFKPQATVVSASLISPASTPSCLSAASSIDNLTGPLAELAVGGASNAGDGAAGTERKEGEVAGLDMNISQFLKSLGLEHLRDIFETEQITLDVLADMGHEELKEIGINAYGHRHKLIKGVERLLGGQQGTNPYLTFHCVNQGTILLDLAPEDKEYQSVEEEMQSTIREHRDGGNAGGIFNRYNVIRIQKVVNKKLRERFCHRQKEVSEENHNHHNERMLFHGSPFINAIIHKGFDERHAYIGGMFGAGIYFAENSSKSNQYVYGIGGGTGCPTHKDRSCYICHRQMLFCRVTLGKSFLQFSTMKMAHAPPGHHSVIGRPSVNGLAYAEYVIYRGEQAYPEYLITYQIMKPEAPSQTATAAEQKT
Put plainly: Analysis of activity of tankyrase 1 (Trevigen kit, ELISA absorbance at 450 nm). The format is biochemical. As for the experimental part: Activities of novel compounds synthesized according to Examples 1 to 48 against tankyrase 1 were analyzed using a Trevigen kit (Cat. No. 4700-096-K). Poly PAR histone protein-coated 96-well plate, anti-PAR monoclonal antibody and goat anti-mouse IgG-HRP were used for measurement of absorbance by ELISA method. Specifically, 20× I-PAR assay buffer was diluted to 1× by adding water, and 50 μL of the diluted buffer was added to each well of the 96-well plate followed by reacting at rt for 30 min. Then, the supernatant was completely removed from each well and 10 μL of 1× I-PAR assay buffer and 15 μL of assay substrate were added to each well along with 1 μL of a 50× solution of inhibitors to be tested, which were the compounds obtained in the Examples 1 to 48. 10 m Units/μL of tankyrase 1 enzyme was diluted 50-fold with 1× I-PAR assay buffer and 25 μL of the diluted enzyme was added to each well and reacted while stirring at rt for 30 min. One without any compound of the present invention was used as a positive control and another containing 1× I-PAR assay buffer with the same volume instead of tankyrase 1 enzyme was used as a negative control. Upon completion of the reaction, 200 μL of PBSX, which was prepared by adding 0.1% triton X-100 to PBS, was added and removed and this washing process was repeated twice. Washing was repeated twice more using PBS in the same manner. 5× antibody diluent was diluted with distilled water to 1× concentration, 50 μL of the diluted goat anti-mouse IgG-HRP to 1/2000 was added to each well and reacted while stirring at rt for 30 min. Washes were carried out twice using PBSX and PBS, respectively. After addition of 50 μL of TACS-sapphire to each well of the plate, the plate was blocked from light to react for 10 min to 15 min and the color of the reaction solution turned blue. To stop the reaction, 50 μL of 0.2N HCl was added to turn the solution yellow. Finally, the absorbance of the resulting solution was measured at 450 nm.

The mark [1] stands for this setting: Trevigen kit Cat. No. 4700-096-K, reaction at rt for 30 min, read-out: TNKS1 (IC50).

Counter-ions that a name gives are not always drawn. Like-named read-outs stand apart in the source and are kept apart here.

For the compound `Cc1ncc2c(=O)[nH]c(N3CCN(c4c(F)cc(OCCN5CCC(N)CC5)cc4F)CC3)nn12` [compound 34, 2-(4-(4-(2-(4-Aminopiperidin-1-yl)ethoxy)-2,6-difluorophenyl)piperazin-1-yl)-7-methylimidazo[1,5-f][1,2,4]triazin-4(3H)-one], under setting [1], the IC50 was found to be 60.5 nM.
Same read-out and setting: the result for `Cc1ncc2c(=O)[nH]c(N3CCN(c4c(F)cc(OCCN5CCOCC5)cc4F)CC3)nn12` [compound 4, 2-(4-(2,6-Difluoro-4-(2-morpholinoethoxy)phenyl)piperazin-1-yl)-7-methylimidazo[1,5-f][1,2,4]triazin-4(3H)-one] reads 32.3 nM.
Still for that read-out and setting: in the case of `Cc1ncc2c(=O)[nH]c(N3CCN(c4c(F)cc(OCC(=O)N5CCCC5)cc4F)CC3)nn12` [compound 29, 2-(4-(2,6-Difluoro-4-(2-oxo-2-(pyrrolidin-1-yl)ethoxy)phenyl)piperazin-1-yl)-7-methylimidazo[1,5-f][1,2,4]triazin-4(3H)-one] it was 84.8 nM.
The same measure, in the same setting: the result for `Cc1ncc2c(=O)[nH]c(N3CCN(c4c(F)cc(OCCN5CCCCC5)cc4F)CC3)nn12` [compound 5, 2-(4-(2,6-Difluoro-4-(2-(piperidin-1-yl)ethoxy)phenyl)piperazin-1-yl)-7-methylimidazo[1,5-f][1,2,4]triazin-4(3H)-one] reads 25.2 nM; that for `COCCOc1cc(F)c(C2(O)CCN(c3nn4c(C)ncc4c(=O)[nH]3)CC2)c(F)c1` [compound 17, 2-(4-(2,6-Difluoro-4-(2-methoxyethoxy)phenyl)-4-hydroxypiperidin-1-yl)-7-methylimidazo[5,1-f][1,2,4]triazin-4(3H)-one], 67.2 nM; that for `Cc1ncc2c(=O)[nH]c(N3CCN(c4c(F)cc(OCCN5CCN(C)CC5=O)cc4F)CC3)nn12` [compound 33, 2-(4-(2,6-Difluoro-4-(2-(4-methyl-2-oxopiperazin-1-yl)ethoxy)phenyl)piperazin-1-yl)-7-methylimidazo[1,5-f][1,2,4]triazin-4(3H)-one], 180 nM.
On to `Cc1ncc2c(=O)[nH]c(N3CCN(c4c(F)cc(OCCN5CCN(C)CC5)cc4F)CC3)nn12` [compound 25, 2-(4-(2,6-Difluoro-4-(2-(4-methylpiperazin-1-yl)ethoxy)phenyl)piperazin-1-yl)-7-methylimidazo[1,5-f][1,2,4]triazin-4(3H)-one], for which, under setting [1], the IC50 was 69.9 nM.
The same measure, in the same setting: in the case of `COCCN(C)Cc1cc(F)c(N2CCN(c3nn4c(C)ncc4c(=O)[nH]3)CC2)c(F)c1` [compound 19, 2-(4-(2,6-Difluoro-4-(((2-methoxyethyl)(methyl)amino)methyl)phenyl)piperazin-1-yl)-7-methylimidazo[1,5-f][1,2,4]triazin-4(3H)-one] it was 102 nM.
The compound `Cc1ncc2c(=O)[nH]c(N3CCN(c4c(F)cc(OC5COC5)cc4F)CC3)nn12` [compound 12, 2-(4-(2,6-Difluoro-4-(oxetan-3-yloxy)phenyl)piperazin-1-yl)-7-methylimidazo[1,5-f][1,2,4]triazin-4(3H)-one] gave an IC50 of 96.3 nM.
`Cc1ncc2c(=O)[nH]c(N3CCN(c4c(F)cc(OCCO)cc4F)CC3)nn12` [compound 7, 2-(4-(2,6-Difluoro-4-(2-hydroxyethoxy)phenyl)piperazin-1-yl)-7-methylimidazo[1,5-f][1,2,4]triazin-4(3H)-one]: under setting [1], the IC50 was found to be 38.7 nM.
On the same count and under the same terms, the result for `Cc1ncc2c(=O)[nH]c(N3CCN(c4c(F)cc(OCCOC(=O)[C@H](C)N)cc4F)CC3)nn12` [compound 8, (S)-2-(3,5-Difluoro-4-(4-(7-methyl-4-oxo-3,4-dihydroimidazo[1,5-f][1,2,4]triazin-2-yl)piperazin-1-yl)phenoxy)ethyl 2-aminopropionate hydrochloride] reads 43.6 nM; that for `Cc1ncc2c(=O)[nH]c(N3CCN(c4c(F)cc(CN5CCOCC5)cc4F)CC3)nn12` [compound 10, 2-(4-(2,6-Difluoro-4-(morpholinomethyl)phenyl)piperazin-1-yl)-7-methylimidazo[1,5-f][1,2,4]triazin-4(3H)-one], 48.8 nM; that for `Cc1ncc2c(=O)[nH]c(N3CCN(c4c(F)cc(OCC(=O)N5CCCCC5)cc4F)CC3)nn12` [compound 28, 2-(4-(2,6-Difluoro-4-(2-oxo-2-(piperidin-1-yl)ethoxy)phenyl)piperazin-1-yl)-7-methylimidazo[1,5-f][1,2,4]triazin-4(3H)-one], 63.1 nM.
As for `COC(C)c1cc(F)c(N2CCN(c3nn4c(C)ncc4c(=O)[nH]3)CC2)c(F)c1` (stereo not drawn) [compound 14, 2-(4-(2,6-Difluoro-4-(1-methoxyethyl)phenyl)piperazin-1-yl)-7-methylimidazo[1,5-f][1,2,4]triazin-4(3H)-one], the IC50 under setting [1] is 69.2 nM.
The compound `Cc1ncc2c(=O)[nH]c(N3CCN(c4ccccc4F)CC3)nn12` [compound 1, 2-(4-(2-Fluorophenyl)piperazin-1-yl)-7-methylimidazo[1,5-f][1,2,4]triazin-4(3H)-one] gave an IC50 of 110 nM.
`Cc1ncc2c(=O)[nH]c(N3CCN(c4c(F)cc(CN5CCN(C)CC5)cc4F)CC3)nn12` [compound 11, 2-(4-(2,6-Difluoro-4-((4-methylpiperazin-1-yl)methyl)phenyl)piperazin-1-yl)-7-methylimidazo[1,5-f][1,2,4]triazin-4(3H)-one]: the IC50 under setting [1] was 44.1 nM.
Still for that read-out and setting: the result for `Cc1ncc2c(=O)[nH]c(N3CCN(c4c(F)cc(OCc5ccccc5)cc4F)CC3)nn12` [compound 3, 2-(4-(4-(Benzyloxy)-2,6-difluorophenyl)piperazin-1-yl)-7-methylimidazo[1,5-f][1,2,4]triazin-4(3H)-one] reads 494 nM; that for `Cc1ncc2c(=O)[nH]c(N3CCN(c4c(F)cc(OCCN5CCCC5)cc4F)CC3)nn12` [compound 24, 2-(4-(2,6-Difluoro-4-(2-(pyrrolidin-1-yl)ethoxy)phenyl)piperazin-1-yl)-7-methylimidazo[1,5-f][1,2,4]triazin-4(3H)-one], 93.4 nM.
`Cc1ncc2c(=O)[nH]c(N3CCN(c4c(F)cc(C(C)O)cc4F)CC3)nn12` (stereo not drawn) [compound 13, 2-(4-(2,6-Difluoro-4-(1-hydroxyethyl)phenyl)piperazin-1-yl)-7-methylimidazo[1,5-f][1,2,4]triazin-4(3H)-one]: the IC50 under setting [1] worked out at 45.7 nM.
Compound `Cc1ncc2c(=O)[nH]c(N3CCN(c4c(F)cccc4F)CC3)nn12` [compound 15, 2-(4-(2,6-Difluorophenyl)piperazin-1-yl)-7-methylimidazo[1,5-f][1,2,4]triazin-4(3H)-one] yielded an IC50 of 17.9 nM.
With `Cc1ncc2c(=O)[nH]c(N3CCN(c4c(F)cc(OCCN=[N+]=[N-])cc4F)CC3)nn12` [compound 31, 2-(4-(4-(2-Azidoethoxy)-2,6-difluorophenyl)piperazin-1-yl)-7-methylimidazo[1,5-f][1,2,4]triazin-4(3H)-one], the IC50 under setting [1] was found to be 171 nM.

(Values after US10179785B2, “Imidazotriazinone or imidazopyrazinone derivatives, and use thereof” (ST PHARM CO., LTD., priority 2014, dated 2019).)
